Test results reported in patent publication US20260008739A1, “CRYSTAL AND FORMULATION OF REDUCED COENZYME Q10” (KANEKA CORPORATION, priority 2023, published 2026).

Experiment: Oxidation stability of QH crystals on storage at 40° C. and 75% RH (HPLC of reduced and oxidized coenzyme Q10)
Type: physicochemical
Conditions: for Relative QH ratio: QH ratio before storage = 100; for Oxidizing rate: crystal stored at 40° C. and 75% RH for approximately 1 month, decrease in relative QH ratio divided by days of storage
Method: The QH crystals prepared in Examples 1 to 3 and Comparative Examples 1 and 2 above were stored at 40° C. and 75% RH in a thermostatic chamber for approximately 1 month. Before and after the storage, the reduced coenzyme Q10 content and the oxidized coenzyme Q10 content of the crystal were measured by HPLC (high performance liquid chromatography). On the basis of the measurement results, the below-described QH ratio, relative QH ratio after storage, and oxidizing rate were calculated.
• Column: AS12S05-1546WT (manufactured by YMC Co., Ltd.) 150 mm (in length) and 4.6 mm (in inner diameter) • Mobile phase: C2H3N: CH3OH=1:9 (v:v) • Detection wavelength: 290 nm • Flow rate: 1 ml/min
The “QH ratio” means the ratio of the amount of the reduced coenzyme Q10 to the total amount of the coenzyme Q10 present in the crystal, and is calculated in accordance with the following formula.
The “relative QH ratio after storage” is a value obtained by relativizing the QH ratio after storage on the basis of each of the QH ratios measured before the start of storage and after storage, assuming that the QH ratio before storage is 100. The relative QH ratio after storage is calculated in accordance with the following formula.
The “oxidizing rate” is a value obtained by dividing a change (amount of decrease) in the relative QH ratio in the period of storage by the number of days of storage, and is calculated in accordance with the following formula.

[1] = crystal stored at 40° C. and 75% RH for 28 days

## COc1c(O)c(C)c(C/C=C(\C)CC/C=C(\C)CC/C=C(\C)CC/C=C(\C)CC/C=C(\C)CC/C=C(\C)CC/C=C(\C)CC/C=C(\C)CC/C=C(\C)CCC=C(C)C)c(O)c1OC [Comparative Example 2, reduced coenzyme Q10]
[1]
  Relative QH ratio: 88.2 (when stored %
  Oxidizing rate: 0.42 %/day

## COc1c(O)c(C)c(C/C=C(\C)CC/C=C(\C)CC/C=C(\C)CC/C=C(\C)CC/C=C(\C)CC/C=C(\C)CC/C=C(\C)CC/C=C(\C)CC/C=C(\C)CCC=C(C)C)c(O)c1OC [Example 1, reduced coenzyme Q10]
[1]
  Relative QH ratio: 91.6 (when stored %
  Oxidizing rate: 0.30 %/day

## COc1c(O)c(C)c(C/C=C(\C)CC/C=C(\C)CC/C=C(\C)CC/C=C(\C)CC/C=C(\C)CC/C=C(\C)CC/C=C(\C)CC/C=C(\C)CC/C=C(\C)CCC=C(C)C)c(O)c1OC [Example 3, reduced coenzyme Q10]
[1]
  Relative QH ratio: 93.5 (when stored %
  Oxidizing rate: 0.23 %/day

## COc1c(O)c(C)c(C/C=C(\C)CC/C=C(\C)CC/C=C(\C)CC/C=C(\C)CC/C=C(\C)CC/C=C(\C)CC/C=C(\C)CC/C=C(\C)CC/C=C(\C)CCC=C(C)C)c(O)c1OC [Example 2, reduced coenzyme Q10]
[1]
  Relative QH ratio: 92.6 (when stored %
  Oxidizing rate: 0.26 %/day

## COc1c(O)c(C)c(C/C=C(\C)CC/C=C(\C)CC/C=C(\C)CC/C=C(\C)CC/C=C(\C)CC/C=C(\C)CC/C=C(\C)CC/C=C(\C)CC/C=C(\C)CCC=C(C)C)c(O)c1OC [Comparative Example 1, reduced coenzyme Q10]
Crystal stored at 40° C. and 75% RH for 29 days
  Relative QH ratio: 86.1 (when stored %
  Oxidizing rate: 0.48 %/day
